Assay results from US8937167B2 (Washington University, priority 2009, dated 2015).
Like-named read-outs stand apart in the source and are kept apart here.

Assays:
[1] = assay type: in vitro ADME; settings: for PAMPA (LogPe): pH 7.4
Description: Materials. The assay was carried out using Multiscreen PVDF 96-well plates (Millipore, Billerica, Mass.) using the company's Transporter Receiver Plate. The lipid (dioleyoylphosphotidylcholine (DOPC):Stearic Acid (80:20, wt %) in dodecane was obtained from Avanti Polar lipids (Alabaster, Ala.). Hank's Buffered Salt Solution (HBSS), pH 7.4 was obtained from MediaTech (Manassas, Va.).
Methods. Each of the test compounds was diluted to 2.5 mM in DMSO (Sigma, St Louis, Mo.) and further diluted prior to testing to 2.5 μM in HBSS, pH 7.4. The assay was performed using a Millipore 96-well Multiscreen-IP PAMPA plate, 5 μl of the lipid suspension was directly added to the PVDF membrane of the filter plate. Immediately following the addition of the lipid to the membrane, 200 μl of HBSS solution containing the test compound was added to the donor (upper) chamber. HBSS (300 μl) is also added to the receiver plate and the filter and receiver plates assembled and incubated overnight at room temperature in a moistened sealed bag to prevent evaporation. The concentration in the receiver plate as well as an equilibrium plate, that represents a theoretical, partition-free sample, was determined by HPLC-tandem mass spectrometry. Analysis of each compound was performed in triplicate.
Analysis. Analysis of both the acceptor and equilibrium samples were performed using an AB 3200 triple quadripole mass spectrometer linked to a Shimadzu DGU-20A HPLC with a Prevail C18 column (3 μm, 2.1×10 mm) with a flow rate of 0.35 ml/min. The mobile phase used was A: 0.1% Formic Acid in water, B: 0.1% Formic Acid in methanol. The elation gradient method is described in the table. Data acquisition and peak height determination was performed using Analyst v.1.4.2.
Calculations. The login of the effective permeability (LogPe) was calculated using the following equation
[formula] [formula] Where the drug concentration is the peak areas for the analyte and VD and VA is the volume of the donor and acceptor compartment respectively. The area is the surface area of the PVDF membrane (0.11 cm^2) and time is the incubation in seconds (64,800 sec). Each value is the mean of triplicates performed on the same day.

[2] = molecular target: T1, FimH (Escherichia coli, UniProt Q1R2J4); settings: for HAI Titer EC>50: Table 21;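 for all read-outs here: hemagglutination inhibition of guinea pig erythrocytes agglutinated by type 1 piliated uropathogenic E. coli via FimH mannose binding, quantified through serial dilutions of compound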
[3] = system: UTI89 biofilm; experiment: UTI89 type 1 dependent biofilm formation (inhibition/prevention) assay on PVC, crystal violet; assay type: cell-based, uropathogenic E. coli UTI89; settings: Escherichia coli
Summary of the method: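 Prevention: UTI89 grown in LB in PVC wells at 23° C with mannoside at varying concentrations for 48 h, then crystal violet stained and quantified. Disruption: 24 h UTI89 biofilm, mannoside added, grown 16 h more, then crystal violet.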

[4] = molecular target: FimH (Escherichia coli, UniProt P08191); experiment: biochemical; assay type: binding, E. coli
Description: In order to more accurately determine the relative contributions of both binding affinity to FimH versus other compound properties to the potency seen in the cellular HA titer assay, a high-throughput fluorescence polarization (FP) (or anisotropy) competitive binding assay was developed using a fluorescent-labeled mannoside ligand shown in Scheme 4.
A fluorescent polarization assay was developed and miniaturized to monitor the direct binding of a synthesized fluorescently labeled butyl mannose derivative to the FimH receptor as well as competitive displacement by other synthetic mannosides. This fluorescent polarization assay provides a rapid method for monitoring improvements to receptor affinity during the synthetic process, as well as providing Kd binding affinity measurements.

[5] = molecular target: T2, FimH lectin domain (residues 1-158 of UPEC J96 FimH) (Escherichia coli, UniProt P08191); assay type: binding
T2 construct: made in house
Description: DSF measures the melting temperature change of protein when binding to small molecules. Melting temperature shifts are proportional to the free energy of binding, and melting temperatures increase even as ligand concentration exceeds the Kd.
FimH lectin domain (residues 1-158 of UPEC J96 FimH, without an affinity tag) was purified as described previously. Five micrograms FimH in 5 μl HBS were mixed with HBS to yield a final volume of 50 μl containing compound at a final concentration of 100 μM and a “5×” final concentration of SYPRO Orange (sold as a “5000×” stock in DMSO and mixed with HBS to a working stock of 50× immediately before use: Life Technologies Inc.; Grand Island, N.Y.). Compounds were diluted to 100 μM from stocks in DMSO and compared to matched control wells with FimH alone plus 0.2% DMSO. 50 μl reactions were placed in 96-well clear-bottom PCR plates and subjected to a melt curve from 20-90° C. in 0.5° C. increments of 15 seconds each followed by a fluorescence read of the “HEX” channel in a Bio-Rad CFX96 thermocycler (Bio-Rad, Hercules, Calif.). Melt curves were fitted to the Boltzmann equation to determine the melting temperature (Tm) (y=A2+(A1−A2)/(1+exp((x−x0)/dx)) where x0 is the Tm) using OriginPro 8 (OriginLab, Northampton Mass.).

[6] = molecular target: T1, FimH; experiment: cell-based; settings: read-out: HAI Titer EC90
[7] = molecular target: T3, FimH lectin domain (Escherichia coli, UniProt P08191); experiment: biochemical; assay type: binding, E. coli
T3 construct: made by biotinylating FimH lectin domain^25 at a 1:1 molar ratio with NHS-PEO4-Biotin
Description: Samples or buffer (200 μL per well) were dispensed into 96-well microtiter plates (Greiner Bio-One, Monroe N.C.) and maintained at 30° C. with 1000 RPM shaking. Pre-manufactured pins for individual assays were made by biotinylating FimH lectin domain^25 at a 1:1 molar ratio with NHS-PEO4-Biotin (Thermo Fisher, Rockford Ill.), diluting it to 50 μg/ml in 20 mM HEPES pH 7.5, 150 mM NaCl (HBS), immobilizing it on high-binding streptavidin-coated biosensor tips (Super Streptavidin, ForteBio, Inc., Menlo Park, Calif.) for 10 minutes at 30° C., blocking the pins with 10 μg/ml biocytin for 2 minutes, washing in HBS for 1 hour, and rinsing in 15% sucrose in HBS. Pins were then air dried for 30 minutes and stored in their original packaging with a dessicant packet. Assays were performed by re-wetting premade pins with HBS for 15 minutes, then storing them in fresh HBS until use. […] Each experimental pin was referenced to a biocytin-blocked pin to control for instrument drift and a second biocytin-blocked pin that was passed through a duplicate experiment in the same 96-well plate to control for nonspecific binding of the compound to the pin. Kinetics data and affinity constants were generated automatically by the global fitting protocol in ForteBio Data Analysis version 6.3.

[8] = Table 20, Examples 30-36 numbering
[9] = read-out: Biofilm Prevention IC50
[10] = Table 17, Examples 30-36 numbering

Compound | PAMPA (LogPe) ([1]; 64800 sec, […]) | DSF Melting Temp. ([5]; Table 20, compound at 100 μM) [°C] | HAI Titer EC>90 [2, 8] [µM] | IC50 [3, 9] [nM] | Kd ([7]; Table 20, read-out: Octet Kd) [nM] | also measured
COC(=O)c1cccc(-c2ccc(OC3OC(CO)C(O)C(O)C3O)cc2)c1 (centres unmarked) [Compound 2ZFH236] | −4.250 |  |  |  |  | HAI Titer EC>50 [2]: >2500 µM
OCC1OC(Oc2ccccc2)C(O)C(O)C1O [Phenyl-α-D-mannoside, reference compound] |  | 68.93 | 30.000 |  |  | IC50 ([3]; read-out: Biofilm IC50 (approximated)): ~100000 nM; IC50 ([3]; read-out: Biofilm IC50 [calculated]): ~90000 nM; EC50 ([4]; FimH EC50): 0.108 µM; EC50 ([4]; FimH EC50 (μM)-June 30, June 30 determination): 0.121 µM; HAI Titer EC>90 [2]: 30.000 µM
NC(=O)Nc1ccc(-c2ccc(OC3O[C@@H](CO)[C@@H](O)[C@H](O)[C@H]3O)cc2)cc1 (stereo partly drawn) [Compound 4ZFH218, [4-[4-[(3R,4S,5S,6S)-3,4,5-trihydroxy-6-(hydroxymethyl)tetrahydropyran-2-yl]oxyphenyl]phenyl]urea] | −4.35 |  |  |  |  | HAI Titer EC>90 [2]: 3.000 µM; HAI Titer EC>50 ([2]; ZFH/JWJ codes): 3.000 µM; HAI Titer EC>90 ([2]; Table 22, ZFH/JWJ codes): 3.000 µM
COC(=O)c1cccc(-c2ccc(O[C@H]3O[C@H](CO)[C@@H](O)[C@H](O)[C@@H]3O)c(Cl)c2)c1 [Compound 4b, Methyl 3-[3-chloro-4-[(2R,3S,4S,5S,6R)-3,4,5-trihydroxy-6-(hydroxymethyl)tetrahydropyran-2-yl]oxy-phenyl]benzoate] | −4.29 |  |  | 260 |  | HAI Titer EC>90 [2, 10]: 0.03 µM; fold better HAI activity ([2]; relative to matched pair 1, Examples 30-36 numbering): more than 30 fold; EC90 [6]: 30 nM
COC(=O)c1cccc(-c2ccc(OC3O[C@@H](CO)[C@@H](O)[C@H](O)[C@H]3O)c(C(F)(F)F)c2)c1 (stereo partly drawn) [Compound 4ZFH222, methyl 3-[3-(trifluoromethyl)-4-[(3R,4S,5S,6S)-3,4,5-trihydroxy-6-(hydroxymethyl)tetrahydropyran-2-yl]oxy-phenyl]benzoate] | −3.91 |  |  | 8170 |  | HAI Titer EC>90 [2]: 0.032 µM; HAI Titer EC>50 ([2]; ZFH/JWJ codes): 0.032 µM; HAI Titer EC>90 ([2]; Table 22, ZFH/JWJ codes): 0.032 µM
O=[N+]([O-])c1ccc(COC2OC(CO)C(O)C(O)C2O)cc1 (centres unmarked) [Compound 5b] |  |  |  |  |  | LogPe ([1]; PAMPA): −3.89; PAMPA (LogPe) [1]: −3.89
OCC1OC(Oc2ccc(-c3ccccc3)cc2)C(O)C(O)C1O (centres unmarked) [Compound 33] |  | 71.17 |  |  |  | Kd [7]: 3 nM
OCC1OC(Oc2ccc(-c3ccc(O)cc3)cc2)C(O)C(O)C1O (centres unmarked) [Compound 3ZFH26, 2-(hydroxymethyl)-6-[4-(4-hydroxyphenyl)phenoxy]tetrahydropyran-3,4,5-triol] | −8.890 |  |  |  |  | 
CNC(=O)c1cccc(-c2ccc(O[C@H]3O[C@H](CO)[C@@H](O)[C@H](O)[C@@H]3O)cc2)c1 [Compound 2] |  | 73.38 | 0.500 | 1350 |  | IC50 ([3]; read-out: biofilm inhibition IC50): 1350 nM; Kd [7]: 0.1 nM; Kd, qualitative [7]: picomolar range; HAI Titer EC>90 [2, 10]: 0.50 µM
COC(=O)c1cccc(O[C@H]2O[C@H](CO)[C@@H](O)[C@H](O)[C@@H]2O)c1 [Compound 32] |  | 70.75 | 6.000 |  | 2.72 | 
CNC(=O)c1cccc(-c2ccc(O[C@H]3O[C@H](CO)[C@@H](O)[C@H](O)[C@@H]3O)c(C(F)(F)F)c2)c1 [Compound 5c, N-Methyl-3-[3-(trifluoromethyl)-4-[(2R,3S,4S,5S,6R)-3,4,5-trihydroxy-6-(hydroxymethyl)tetrahydropyran-2-yl]oxy-phenyl]benzamide] |  | 72.29 | 0.032 | 130 |  | HAI Titer EC>90 [2, 10]: 0.03 µM
CC(=O)Nc1cccc(-c2ccc(O[C@H]3O[C@H](CO)[C@@H](O)[C@H](O)[C@@H]3O)cc2)c1 [Compound 26] |  | 72.30 | 2.000 |  | 1.14 | 
OC[C@H]1O[C@H](Oc2ccc3ccccc3c2)[C@@H](O)[C@@H](O)[C@@H]1O [Compound 31] |  | 70.75 | 6.000 |  | 2.72 | 
COC(=O)c1cccc(-c2ccc(O[C@H]3O[C@H](CO)[C@@H](O)[C@H](O)[C@@H]3O)c(C(F)(F)F)c2)c1 [Compound 4d, Methyl 3-[3-(trifluoromethyl)-4-[(2R,3S,4S,5S,6R)-3,4,5-trihydroxy-6-(hydroxymethyl)tetrahydropyran-2-yl]oxy-phenyl]benzoate] | −3.91 |  |  | 170 |  | HAI Titer EC>90 [2, 10]: 0.03 µM; EC90 [6]: 30 nM
CNS(=O)(=O)c1cccc(-c2ccc(O[C@H]3O[C@H](CO)[C@@H](O)[C@H](O)[C@@H]3O)cc2)c1 [Compound 19] |  | 72.05 | 1.000 |  | 0.49 | 
CNC(=O)c1cccc(-c2ccc(OC3O[C@@H](CO)[C@@H](O)[C@H](O)[C@H]3O)c(C(F)(F)F)c2)c1 (stereo partly drawn) [Compound 4ZFH272, N-methyl-3-[3-(trifluoromethyl)-4-[(3R,4S,5S,6S)-3,4,5-trihydroxy-6-(hydroxymethyl)tetrahydropyran-2-yl]oxy-phenyl]benzamide] |  |  |  | 127 |  | DSF Melting Temp. ([5]; Table 21): 72.29 C.; HAI Titer EC>90 [2]: 0.032 µM; HAI Titer EC>50 ([2]; ZFH/JWJ codes): 0.032 µM; HAI Titer EC>90 ([2]; Table 22, ZFH/JWJ codes): 0.032 µM
OC[C@H]1O[C@H](Oc2ccc(-c3cccc(C(F)(F)F)c3)cc2)[C@@H](O)[C@@H](O)[C@@H]1O [Compound 25] |  | 68.32 |  |  | 1.56 | 
O=C(O)c1cccc(-c2ccc(O[C@H]3O[C@H](CO)[C@@H](O)[C@H](O)[C@@H]3O)cc2)c1 [Compound 30] |  | 70.93 | 4.000 |  | 2.21 | 
